# Legend:
# Assay type in all cases: cell-based, human
# NCI-H226 = assay: NCI in vitro cancer screen, Non-Small Cell Lung Cancer; settings: NCI-H226
# MCF7 = assay: NCI in vitro cancer screen, Breast Cancer; settings: MCF7
# OVCAR-3 = assay: NCI in vitro cancer screen, Ovarian Cancer; settings: OVCAR-3
# ACHN = assay: NCI in vitro cancer screen, Renal Cancer
# RXF-393 = assay: NCI in vitro cancer screen, Renal Cancer; settings: RXF-393
# SW-620 = assay: NCI in vitro cancer screen, Colon Cancer; settings: SW-620
# K-562 = assay: NCI in vitro cancer screen, Leukemia; settings: K-562
# M14 = assay: NCI in vitro cancer screen, Melanoma; settings: M14
# UACC-257 = assay: NCI in vitro cancer screen, Melanoma; settings: UACC-257
# SNB-19 = assay: NCI in vitro cancer screen, CNS Cancer; settings: SNB-19
# OVCAR-8 = assay: NCI in vitro cancer screen, Ovarian Cancer; settings: OVCAR-8
# DU-145 = assay: NCI in vitro cancer screen, Prostate Cancer; settings: DU-145
# HCC-2998 = assay: NCI in vitro cancer screen, Colon Cancer; settings: HCC-2998
# MDA-MB-435 = assay: NCI in vitro cancer screen, Melanoma; settings: MDA-MB-435
# [1] = test system: MDA-MB-231 (MDA-MB-231/ATCC); assay: NCI in vitro cancer screen, Breast Cancer; settings: MDA-MB-231
# CCRF-CEM = assay: NCI in vitro cancer screen, Leukemia
# NCI-H522 = assay: NCI in vitro cancer screen, Non-Small Cell Lung Cancer; settings: NCI-H522
# HS 578T = assay: NCI in vitro cancer screen, Breast Cancer
# SNB-75 = assay: NCI in vitro cancer screen, CNS Cancer; settings: Homo sapiens, SNB-75
# SK-MEL-5 = assay: NCI in vitro cancer screen, Melanoma; settings: SK-MEL-5
# 786-0 = assay: NCI in vitro cancer screen, Renal Cancer; settings: 786-0
# SK-MEL-28 = assay: NCI in vitro cancer screen, Melanoma; settings: SK-MEL-28
# SF-295 = assay: NCI in vitro cancer screen, CNS Cancer; settings: SF-295
# IGROV1 = assay: NCI in vitro cancer screen, Ovarian Cancer; settings: IGROV1
# EKVX = assay: NCI in vitro cancer screen, Non-Small Cell Lung Cancer
# SK-OV-3 = assay: NCI in vitro cancer screen, Ovarian Cancer; settings: SK-OV-3
# A549/ATCC = assay: NCI in vitro cancer screen, Non-Small Cell Lung Cancer
# MDA-MB-468 = assay: NCI in vitro cancer screen, Breast Cancer; settings: MDA-MB-468
# NCI-H322M = assay: NCI in vitro cancer screen, Non-Small Cell Lung Cancer
# HCT-116 = assay: NCI in vitro cancer screen, Colon Cancer; settings: HCT-116
# [2] = Homo sapiens, read-out: LC50 (the source's name)
smiles,measurement,setting,value
"COc1cc(O)cc(/C=C/c2ccc(O)c(O)c2)c1CC=C(C)C [USYDS9, (E)-2-(3-methyl-2-buten-1-yl)-3′,4′,5-trihydroxy-3-methoxystilbene]",GI50,NCI-H226; Homo sapiens,18.6 µM
same,LC50 (50% lethal concentration),NCI-H226; Homo sapiens,> 100 µM
same,TGI,NCI-H226,57.9 µM
same,GI50,MCF7; Homo sapiens,2.81 µM
same,CC50,MCF7; [2],> 100 µM
same,TGI,MCF7,>100 µM
same,GI50,OVCAR-3; Homo sapiens,0.9 µM
same,CC50,OVCAR-3; [2],24.8 µM
same,TGI,OVCAR-3,3.84 µM
same,TGI,ACHN,>100 µM
same,GI50,ACHN; Homo sapiens,0.66 µM
same,CC50,ACHN; [2],> 100 µM
same,GI50,RXF-393; Homo sapiens,0.23 µM
same,CC50,RXF-393; [2],> 100 µM
same,TGI,RXF-393,0.63 µM
same,GI50,SW-620; Homo sapiens,0.31 µM
same,CC50,SW-620; [2],75 µM
same,TGI,SW-620,15.3 µM
same,GI50,"K-562; Homo sapiens, K562",0.33 µM
same,CC50,"K-562; Homo sapiens, K562, read-out: LC50 (the source's name)",> 100 µM
same,TGI,K-562,13.9 µM
same,GI50,M14; Homo sapiens,0.3 µM
same,CC50,M14; [2],> 100 µM
same,TGI,M14,5.69 µM
same,GI50,UACC-257; Homo sapiens,6.15 µM
same,CC50,UACC-257; [2],> 100 µM
same,TGI,UACC-257,59.2 µM
same,GI50,SNB-19; Homo sapiens,0.55 µM
same,CC50,SNB-19; [2],> 100 µM
same,TGI,SNB-19,>100 µM
same,GI50,OVCAR-8; Homo sapiens,0.5 µM
same,CC50,OVCAR-8; [2],> 100 µM
same,TGI,OVCAR-8,38.3 µM
same,TGI,DU-145,2.62 µM
same,GI50,DU-145; Homo sapiens,0.35 µM
same,CC50,DU-145; [2],> 100 µM
same,TGI,HCC-2998,21.2 µM
same,GI50,HCC-2998; Homo sapiens,4.18 µM
same,CC50,HCC-2998; [2],> 100 µM
same,GI50,MDA-MB-435; Homo sapiens,0.13 µM
same,CC50,MDA-MB-435; [2],> 100 µM
same,TGI,MDA-MB-435,0.42 µM
same,GI50,[1]; Homo sapiens,0.38 µM
same,CC50,[1]; [2],> 100 µM
same,TGI,[1],2.61 µM
same,TGI,CCRF-CEM,>100 µM
same,GI50,CCRF-CEM; Homo sapiens,2.14 µM
same,CC50,CCRF-CEM; [2],> 100 µM
same,GI50,NCI-H522; Homo sapiens,0.15 µM
same,CC50,NCI-H522; [2],44.8 µM
same,TGI,NCI-H522,0.45 µM
same,TGI,HS 578T,0.73 µM
same,GI50,HS 578T; Homo sapiens,0.2 µM
same,CC50,HS 578T; [2],> 100 µM
same,GI50,SNB-75,0.24 µM
same,CC50,SNB-75; read-out: LC50 (the source's name),> 100 µM
same,GI50,SK-MEL-5; Homo sapiens,0.39 µM
same,CC50,SK-MEL-5; [2],> 100 µM
same,TGI,SK-MEL-5,2.52 µM
same,TGI,786-0,18.7 µM
same,GI50,786-0; Homo sapiens,2.99 µM
same,LC50 (50% net cell kill),786-0; Homo sapiens,> 100 µM
same,GI50,SK-MEL-28; Homo sapiens,8.14 µM
same,LC50,SK-MEL-28; Homo sapiens,> 100 µM
same,TGI,SK-MEL-28,>100 µM
same,GI50,SF-295; Homo sapiens,2.6 µM
same,CC50,SF-295; [2],> 100 µM
same,TGI,SF-295,20.5 µM
same,GI50,"IGROV1; Homo sapiens, IGROV-1",4.57 µM
same,CC50,"IGROV1; Homo sapiens, IGROV-1, read-out: LC50 (the source's name)",> 100 µM
same,TGI,IGROV1,>100 µM
same,TGI,EKVX,>100 µM
same,GI50,EKVX; Homo sapiens,26.4 µM
same,CC50,EKVX; [2],> 100 µM
same,GI50,SK-OV-3; Homo sapiens,0.5 µM
same,CC50,SK-OV-3; [2],> 100 µM
same,TGI,SK-OV-3,5.12 µM
same,TGI,A549/ATCC,41.5 µM
same,GI50,A549/ATCC; Homo sapiens,2.62 µM
same,CC50,A549/ATCC; [2],> 100 µM
same,GI50,MDA-MB-468; Homo sapiens,2.42 µM
same,CC50,MDA-MB-468; [2],> 100 µM
same,TGI,MDA-MB-468,8.48 µM
same,TGI,NCI-H322M,>100 µM
same,GI50,NCI-H322M; Homo sapiens,0.76 µM
same,LC50 (50% lethal concentration),NCI-H322M; Homo sapiens,> 100 µM
same,TGI,HCT-116,12.8 µM
same,GI50,HCT-116; Homo sapiens,1.4 µM
same,LC50 (concentration killing 50% of cells),HCT-116; Homo sapiens,75 µM

# Source: patent US10696615B2, “Prenylated hydroxystilbenes” (The University of Sydney, priority 2011, dated 2020)
